The record followed here is US20260317296A1, “HETEROCYCLIC COMPOUNDS FOR IMAGING AGGREGATED TAU IN TAUOPATHIES” (University of Pittsburgh - Of the Commonwealth System of …, priority 2023, published 2026).

Like-named read-outs stand apart in the source and are kept apart here.

By Ki is commonly meant a dissociation constant, usually derived from enzyme kinetics or from competition with a known ligand. Usually Kd stands for the concentration at which binding is half-saturated. A high value points to weaker binding. A word on the logD: it is lipophilicity at a set pH, counting ionised and neutral species. Read a high logD as higher lipophilicity.

The target of data set [1] is T1, aggregated 4R-tau in PSP tissue (Homo sapiens, UniProt P10636).
T1 construct: autopsy-confirmed postmortem AD, PSP, and CBD human brain tissues; tissue UCSF Neurodegenerative Disease Brain Bank; host or cells: post-mortem human PSP brain homogenate
T1 sequence (P10636 1-441 isoform P10636-8): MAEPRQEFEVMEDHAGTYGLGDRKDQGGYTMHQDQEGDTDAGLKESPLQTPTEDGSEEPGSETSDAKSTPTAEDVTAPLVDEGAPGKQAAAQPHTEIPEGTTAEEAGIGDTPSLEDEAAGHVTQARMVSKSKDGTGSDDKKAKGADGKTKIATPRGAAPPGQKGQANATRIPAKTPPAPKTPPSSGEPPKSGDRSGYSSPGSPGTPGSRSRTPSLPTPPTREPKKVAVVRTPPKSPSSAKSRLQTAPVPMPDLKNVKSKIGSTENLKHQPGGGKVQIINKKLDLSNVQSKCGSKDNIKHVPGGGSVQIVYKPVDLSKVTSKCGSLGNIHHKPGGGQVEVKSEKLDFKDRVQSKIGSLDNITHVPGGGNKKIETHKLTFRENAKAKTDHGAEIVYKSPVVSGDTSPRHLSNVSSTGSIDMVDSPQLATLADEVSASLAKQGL
The experiment in a line: In vitro competition (Ki) assay, PSP brain tissue homogenate. Format: binding.
Procedure: (§1) The assays utilized autopsy-confirmed postmortem AD, PSP, and CBD human brain tissues obtained from the UCSF Neurodegenerative Disease Brain Bank and contained frequent autopsy-confirmed 3R/4R-tau and amyloid-beta aggregates (AD tissue) or only 4R-tau aggregates (PSP and CBD tissues) and no other detectable aggregated amyloid species. Briefly, the tissues were homogenized in ice-cold pH 7.0 phosphate buffered saline (PBS) at 300 mg/mL on ice using a glass homogenizer, diluted 30-fold with PBS to 10 mg/mL and homogenized a second time with a Brinkmann Polytron homogenizer before storage at −80° C. Frozen brain tissue was thawed and diluted 10-fold in PBS to 1 mg/mL. […] The appropriate concentrations (ranging from 0.1-1000 nM) of unlabeled competitor in 400 μL of PBS buffer were combined with 500 μL of the tritium-labeled radioligand in PBS (~1 nM final concentration of radioligand). The assay was initiated by the addition of 100 μL of 1 mg/mL brain tissue homogenate to achieve a final concentration of 100 pg tissue/mL. After incubation for 60 min at room temperature, the binding mixture was filtered through a Whatman GF/B glass filter via a Brandel M-24R cell harvester (Gaithersburg, MD, USA) and rapidly washed four times with 3 mL PBS buffer. The filters were counted in Cytoscint-ES after thorough vortexing using a liquid scintillation counter. […] All assays were performed in triplicate at each concentration.

Data set [2] has as its target T2, aggregated 4R-tau in AD tissue (Homo sapiens, UniProt P10636).
T2 construct: autopsy-confirmed postmortem AD, PSP, and CBD human brain tissues; tissue UCSF Neurodegenerative Disease Brain Bank; host or cells: post-mortem human AD brain homogenate
The data set can be described thus: In vitro competition (Ki) assay, AD brain tissue homogenate. Format: binding.
Procedure: as §1

The target of a further data set is T3, alpha-synuclein (Homo sapiens, UniProt P37840).
T3 construct: Parkinson's Disease (PD) post-mortem brain tissue; from tissue; host or cells: post-mortem Parkinson's Disease brain
The experiment in a line: Homologous binding assay, Parkinson's Disease (PD) brain tissue.

The target in data set [3] is T4, PiB binding site on amyloid-beta (Homo sapiens, UniProt P05067).
T4 construct: from tissue; host or cells: post-mortem human AD brain
T4 sequence (P05067 672-713 limits assumed): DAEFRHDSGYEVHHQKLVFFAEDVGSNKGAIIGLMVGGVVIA
The data set can be described thus: Competition against [^3H]PiB in post-mortem human AD brain tissue.
Procedure: The assays utilized autopsy-confirmed postmortem AD, PSP, and CBD human brain tissues obtained from the UCSF Neurodegenerative Disease Brain Bank and contained frequent autopsy-confirmed 3R/4R-tau and amyloid-beta aggregates (AD tissue) or only 4R-tau aggregates (PSP and CBD tissues) and no other detectable aggregated amyloid species. Briefly, the tissues were homogenized in ice-cold pH 7.0 phosphate buffered saline (PBS) at 300 mg/mL on ice using a glass homogenizer, diluted 30-fold with PBS to 10 mg/mL and homogenized a second time with a Brinkmann Polytron homogenizer before storage at −80° C. Frozen brain tissue was thawed and diluted 10-fold in PBS to 1 mg/mL. […] The appropriate concentrations (ranging from 0.1-1000 nM) of unlabeled competitor in 400 μL of PBS buffer were combined with 500 μL of the tritium-labeled radioligand in PBS (~1 nM final concentration of radioligand). The assay was initiated by the addition of 100 μL of 1 mg/mL brain tissue homogenate to achieve a final concentration of 100 pg tissue/mL. After incubation for 60 min at room temperature, the binding mixture was filtered through a Whatman GF/B glass filter via a Brandel M-24R cell harvester (Gaithersburg, MD, USA) and rapidly washed four times with 3 mL PBS buffer. The filters were counted in Cytoscint-ES after thorough vortexing using a liquid scintillation counter. […]

Data set [4] has as its target T5, aggregated 4R-tau in PSP brain (Homo sapiens, UniProt P10636).
T5 construct: aggregated 4R-tau in human brain tissue samples from AD, PSP, and CBD patients; from tissue; host or cells: homogenized cortex of human PSP brain
The data set can be described thus: Binding affinity (Kd) assay, PSP brain homogenate. Particulars: for Kd: PSP brain, Table 1.

Data set [5] addresses T6, aggregated 4R-tau in CBD brain (Homo sapiens, UniProt P10636).
T6 construct: aggregated 4R-tau in human brain tissue samples from AD, PSP, and CBD patients; from tissue; host or cells: homogenized cortex of human CBD brain
The data set can be described thus: Binding affinity (Kd) assay, CBD brain homogenate. Particulars: for Kd: CBD brain, Table 1.

Data set [6] deals with T7, aggregated 4R-tau in AD brain (Homo sapiens, UniProt P10636).
T7 construct: aggregated 4R-tau in human brain tissue samples from AD, PSP, and CBD patients; from tissue; host or cells: homogenized cortex of human AD brain
T7 sequence (P10636 1-441 isoform P10636-8): as the sequence (P10636 1-441 isoform P10636-8) above
T7 sequence (P10636 1-410 isoform P10636-5): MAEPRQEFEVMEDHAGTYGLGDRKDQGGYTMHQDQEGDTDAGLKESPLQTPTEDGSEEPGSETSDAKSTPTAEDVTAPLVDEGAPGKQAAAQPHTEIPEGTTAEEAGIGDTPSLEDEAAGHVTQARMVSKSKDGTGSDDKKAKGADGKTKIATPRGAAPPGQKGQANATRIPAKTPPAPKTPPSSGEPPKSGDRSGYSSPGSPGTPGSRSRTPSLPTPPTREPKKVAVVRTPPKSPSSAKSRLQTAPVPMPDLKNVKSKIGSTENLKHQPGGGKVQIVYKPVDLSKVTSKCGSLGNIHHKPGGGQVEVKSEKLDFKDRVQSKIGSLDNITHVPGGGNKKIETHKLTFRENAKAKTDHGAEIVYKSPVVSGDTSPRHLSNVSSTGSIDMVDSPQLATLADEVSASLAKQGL
The experiment in a line: Binding affinity (Kd) assay, AD brain homogenate. Conditions: for Kd: AD brain, Table 1.

Another data set concerns AD brain tissue. The experiment in a line: Autoradiography, post-mortem AD brain tissue. Type of data set: binding, human. Conditions: medial frontal cortex, 5 nM, self-blocking with 1 mM unlabeled 69.
A further data set has as its system PSP brain tissue. The experiment in a line: Autoradiography, post-mortem PSP brain tissue. Format: binding, human. Particulars: medial frontal cortex, 5 nM, self-blocking with 1 mM unlabeled 69.
The target of data set [7] is T8, Pick's Disease brain tissue (Homo sapiens, UniProt P10636).
T8 construct: post-mortem human AD, PSP, CBD, and Pick's Disease brain tissue; from tissue; host or cells: post-mortem human Pick's Disease brain
T8 sequence (P10636 1-410 isoform P10636-5): as above
The experiment in a line: Homologous binding assay, Pick's Disease brain tissue. Conditions: post-mortem human Pick's Disease brain tissue.

The next data set concerns CBD brain tissue. The data set can be described thus: Autoradiography, post-mortem CBD brain tissue. Type of data set: binding, human. Conditions: medial frontal cortex, 5 nM, self-blocking with 1 mM unlabeled 69.
A further data set has as its target T9, P301L mouse brain tissue (Homo sapiens, UniProt P10636, P618L).
T9 construct: from tissue; host or cells: brain tissue of P301L mouse
The experiment in a line: Homologous binding assay, P301L mouse brain tissue.

The subject of data set [8] is post-mortem human brain control tissue. The data set can be described thus: Autoradiography, post-mortem control brain tissue. Type of data set: binding. Particulars: cingulate gyrus, 5 nM, self-blocking with 1 mM unlabeled 69.
A further data set in a line: log D of radiotracer. Type of data set: physicochemical. Conditions: n=4.
Where [9] appears, read: vs [^3H]1, n = 1, Ki=IC50/2, read-out: Inhibition Constant (Ki) versus [^3H]1.
Where [10] appears, read: post-mortem human AD brain tissue.
[11] abbreviates: vs [^3H]2, n = 1, Ki=IC50/2, read-out: Inhibition Constant (Ki) versus [^3H]2.

T2 sequence (P10636 1-441 isoform P10636-8): as the sequence (P10636 1-441 isoform P10636-8) above
T2 sequence (P10636 1-410 isoform P10636-5): as the sequence (P10636 1-410 isoform P10636-5) above
T5 sequence (P10636 1-441 isoform P10636-8): as the sequence (P10636 1-441 isoform P10636-8) above
T6 sequence (P10636 1-441 isoform P10636-8): as above
T9 sequence (P10636 1-441 isoform P10636-8 P301L): as the sequence (P10636 1-441 isoform P10636-8) above, with P301L counted along it

In the case of `Fc1ccc2cc(-c3cnc(N4CCC(F)(F)CC4)nc3)[nH]c2c1` [Compound 17, 2-(2-(4,4-Difluoropiperidin-1-yl)pyrimidin-5-yl)-6-fluoro-1H-indole], the Ki was 23 nM in [1] (setting [9]) and 37 nM in data set [2] (setting [9]).
Consider `OC1CCN(c2ncc(-c3cc4cc(F)ccc4o3)cn2)CC1` [Compound 43, 1-(5-(5-Fluorobenzofuran-2-yl)pyrimidin-2-yl)piperidin-4-ol], for which the inhibition constant (Ki) in data set [1] (setting [9]) worked out at 91 nM; in [2] (setting [9]) it was 45 nM.
As for `OC1CCN(c2ncc(-c3cc4ccccc4[nH]3)cn2)CC1` [Compound 46, 1-(5-(1H-Indol-2-yl)pyrimidin-2-yl)piperidin-4-ol], the Ki in [1] (setting [9]) stood at 24 nM; in data set [2] (setting [9]) it was 11 nM.
The matching figures for `OC1CCN(c2ncc(-c3cc4cc(F)ccc4[nH]3)cn2)CC1` [Compound 47, 1-(5-(5-Fluoro-1H-indol-2-yl)pyrimidin-2-yl)piperidin-4-ol]: 20 nM and 21 nM.
As to `Fc1nc(N2CCOCC2)ccc1-c1cc2ccccc2[nH]1` [Compound 69, 4-(6-Fluoro-5-(1H-indol-2-yl)pyridin-2-yl)morpholine], on alpha-synuclein (concluded from PD brain tissue), the “binding to alpha-synuclein (in words)” value is “does not bind strongly to alpha-synuclein”. In addition, the “binding to the PiB binding site on amyloid-beta (in words)” value in [3] (concluded from competition against [^3H]PiB) was “does bind to the PiB binding site on amyloid-beta”. The “competition against [^3H]PiB (in words)” value in [3] (setting [10]) is on record as “does not compete well”.
Turning to `Fc1ccc2cc(-c3cnc(N4CCOCC4)cc3F)[nH]c2c1` [Compound 82, 4-(4-Fluoro-5-(6-fluoro-1H-indol-2-yl)pyridin-2-yl)morpholine], the Ki was 12 nM in data set [1] (setting [11]) and 11 nM in [2] (setting [11]).
The matching figures for `Fc1ccc2cc(-c3ncc(N4CCOCC4)cc3F)[nH]c2c1` [Compound 98, 4-(5-Fluoro-6-(6-fluoro-1H-indol-2-yl)pyridin-3-yl)morpholine]: 20 nM and 17 nM.
In the case of `Cn1c(-c2cnc(N3CCOCC3)nc2)cc2ccc(F)cc21` [Compound 103, 4-(5-(6-Fluoro-1-methyl-1H-indol-2-yl)pyrimidin-2-yl)morpholine], the Ki in data set [1] (setting [9]) is 32 nM; in data set [2] (setting [9]), 22 nM.
As to `OC1CCN(c2ncc(-c3cc4ccc(F)cc4[nH]3)cn2)CC1` [[^3H]1], the equilibrium dissociation constant (Kd) in data set [4] worked out at 5.1 ± 1.2 nM; in data set [5], 4.1 nM; in [6] it was 4 ± 3.1 nM.
Taken in the same sequence, the figures for `Fc1ccc2cc(-c3cnc(N4CCOCC4)nc3)[nH]c2c1` [[^3H]2] were 1.6 ± 0.2 nM, 1.7 ± 0.3 nM and 1.2 ± 0.5 nM.
Take `Fc1nc(N2CCOCC2)ccc1-c1cc2ccccc2[nH]1` [[^3H]69]: the “specific binding by autoradiography” value in the data set with AD brain tissue was “Specific binding”; with PSP brain tissue, “Specific binding”; in the data set with CBD brain tissue, “Specific binding”; in data set [8], “Little to no specific binding”. The “binding affinity (in words)” value in data set [7] is on record as “high affinity”; at alpha-synuclein (Parkinson's Disease (PD) post-mortem brain tissue), “low affinity”; in data set [4] (post-mortem human PSP brain tissue), “high affinity”; on P301L mouse brain tissue, “high affinity”; in [5] (post-mortem human CBD brain tissue), “high affinity”; in data set [6] (setting [10]) it was “high affinity”. Moreover, on alpha-synuclein (PD tissue, Table 7 (n = 4)), the equilibrium dissociation constant (Kd) is 110 ± 54 nM.
Consider `[18F]c1nc(N2CCOCC2)ccc1-c1cc2ccccc2[nH]1` [[^18F]69, 4-(6-[^18F]Fluoro-5-(1H-indol-2-yl)pyridin-2-yl)morpholine], for which the logD in the data set “log D of radiotracer” turned out to be 1.96 ± 10.
